{"source": "patent US20100111965A1", "about": "“COMBINATION THERAPY” (FUSION ANTIBODIES LIMITED, priority 2006, published 2010)", "key": {"H460 lung cancer cells": {"system": "H460 lung cancer cells", "assay": "RT-PCR of AREG RNA in H460 lung cancer cells after chemotherapy", "type": "cell-based", "conditions": "48 hour treatment", "protocol": "FIG. 5 illustrates analysis of AREG and beta actin RNA expression in H460 lung cancer cells with/without either a 48 hour CPT11 treatment or 5-Fu treatment. RNA levels were analyzed following 35 cycle of PCR to determine relative differences in expression between treated and untreated samples.\nCells in a log phase of growth were seeded into T75 flask at ˜20% confluence and incubated overnight to allow adherence to the plate. […] Chemotherapy was substituted with saline in control flasks. After different time exposure to chemotherapy the cells were harvested, washed 3 times in PBS and total RNA was isolated using the RNA TAT-60 reagent according to the manufacturer instructions.\nReverse transcription was performed with 2.5 μg of RNA using a High Capacity cDNA Archive kit (Applied Biosystem) according to the instruction of the manufacturer.\nSemi quantitative RT-PCR was performed using a PTC 225 Gradient Cycler (MJ Research Incorporated. The PCR mixture, in a final volume of 25 μL, contains 12.5 μL of 2× Biomix (Bioline, UK), 2 μL of primers (10 μmol/L), 1 μL of cDNA and 9.5 μL of dH2O). PCR conditions were initial denaturation step of 95 C for 10 minutes, followed by 35 cycles of 95° C. for 30 sec for denaturation; as annealing step 55° C. for 30 sec; and extension at 72° C. for 90 sec, with a final extension of 72° C. for 10 minutes. […]"}, "[1]": {"system": "H630 p53 mutant colorectal cancer cell", "assay": "Western blot of AREG protein in H630 p53 mutant lysates after chemotherapy", "type": "cell-based, human", "conditions": "48 hour treatment, two separate experiments", "protocol": "FIG. 4 illustrates analysis of AREG protein 14, expression in H630 p53 mutant colorectal cancer cell lysates following a 48 hour CPT11 treatment. Western blots were probed using an anti-amphiregulin antibody. […] HCT 116, RKO, HT 29 and H630 are human colorectal carcinoma cell lines. After different time exposure to chemotherapy the cells were harvested, and washed in 1×PBS. The cell pellet was then lysed in a suitable amount of 1×RIPA lysis buffer (150 mM NaCl, 10 mM Tris at pH 7.2, 0.1% SDS, 1.0% triton X-100 and 5 mM.EDTA) supplemented with protease inhibitors. The cell lysate was briefly vortexed, incubated on ice for 10 min and then centrifuged at 12,000 rpm to remove cell debris. Following centrifugation, the lysate supernatant was removed to a fresh eppendorf tube. Protein concentrations were assayed using the BCA Protein Assay (Pierce) according to the manufacturer's instructions. The absorbance of each sample at 620 nm was assayed using a microplate reader. A standard BSA curve was plotted for each experiment and the protein concentration of each sample calculated. To each sample an equal volume of 5× Western sample buffer and 10% of the final volume of β-mercaptoethanol (Sigma) was added. […] Protein bands were detected by exposure to autoradiograph which was subsequently developed. […]"}, "HCT116 cells": {"system": "HCT116 cells", "assay": "FACS analysis of cell surface AREG in HCT116 with or without irinotecan", "type": "cell-based, human", "conditions": "2.5 μM for 48 hours; HCT116 and H460 analysed, cell line not given", "protocol": "(§1) Following treatment cells were stained with AREG monoclonal antibodies and analysed by FACS\n(§2) After 48 hours cells were washed in PBS and blocked for 20 minutes in Normal Goat Serum. 5×10^5 cells were incubated with AREG antibodies or isotype control for 2 hours and washed in PBS-T. The cells were incubated with a FITC conjugated goat anti-mouse antibody for 1 hour and washed in PBS-T before analysis on BD FACS canto."}, "[2]": {"system": "H460 lung carcinoma cell line", "assay": "FACS analysis of cell surface AREG in H460 with or without irinotecan", "type": "cell-based", "conditions": "2.5 μM for 48 hours", "protocol": "as §1, §2"}}}
{"smiles": "CCc1c2c(nc3ccc(OC(=O)N4CCC(N5CCCCC5)CC4)cc13)-c1cc3c(c(=O)n1C2)COC(=O)[C@]3(O)CC", "note": "[CPT-11, irinotecan]", "values": [{"measurement": "AREG RNA expression (RT-PCR, 35 cycles)", "setting": "H460 lung cancer cells", "result": "enhanced expression of AREG"}, {"measurement": "AREG protein expression (western blot)", "setting": "[1]", "result": "Enhanced AREG expression"}, {"measurement": "increase in the cell surface expression of AREG (FACS)", "setting": "HCT116 cells", "result": "≤ 40", "unit": "%"}, {"measurement": "AREG surface expression levels (FACS), detected by clones 3H5 and 3F8", "setting": "[2]", "result": "up-regulation in expression levels"}]}
